Experimental data as given in PubChem BioAssay (NCI).
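The concentration for 50% growth inhibition is given as GI50. The concentration for full growth arrest is given as TGI.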

Tests used:
Assay in all cases: growth of human tumour cells (NCI), 384-well format
[1] = test system: SK-OV-3 ovarian
[2] = test system: 786-0 renal
[3] = test system: T-47D breast
[4] = test system: KM12 colon
[5] = test system: SF-539 CNS
[6] = test system: SNB-19 CNS
[7] = test system: OVCAR-4 ovarian
[8] = test system: MOLT-4 leukemia
[9] = test system: SK-MEL-2 melanoma
[10] = test system: SF-268 CNS
[11] = test system: UACC-62 melanoma
[12] = test system: HS 578T breast
[13] = test system: OVCAR-3 ovarian
[14] = test system: CCRF-CEM leukemia
[15] = test system: MDA-MB-468 breast
[16] = test system: COLO 205 colon
[17] = test system: MDA-MB-435 melanoma
[18] = test system: MDA-MB-231 breast
[19] = test system: NCI-H226 lung
[20] = test system: SW-620 colon
[21] = test system: HCC-2998 colon
[22] = test system: MALME-3M melanoma
[23] = test system: NCI-H522 lung
[24] = test system: SR leukemia
[25] = test system: HOP-92 NSCLC
[26] = test system: DU-145 prostate
[27] = test system: NCI-H460 NSCLC
[28] = test system: HOP-62 NSCLC
[29] = test system: A549 NSCLC
[30] = test system: HT29 colon
[31] = test system: U251 glioblastoma
[32] = test system: OVCAR-5 ovarian
[33] = test system: HL-60(TB) leukemia
[34] = test system: SK-MEL-28 melanoma
[35] = test system: ACHN renal
[36] = test system: NCI-H322M lung
[37] = test system: HCT-15 colon
[38] = test system: PC-3 prostate
[39] = test system: CAKI-1 renal
[40] = test system: SK-MEL-5 melanoma
[41] = test system: SNB-75 CNS
[42] = test system: RPMI-8226 leukemia
[43] = test system: EKVX NSCLC
[44] = test system: NCI/ADR-RES ovarian
[45] = test system: NCI-H23 lung
[46] = test system: SN12C renal
[47] = test system: BT-549 breast
[48] = test system: M14 melanoma
[49] = test system: MCF7 breast
[50] = test system: UACC-257 melanoma
[51] = test system: OVCAR-8 ovarian
[52] = test system: IGROV1 ovarian
[53] = test system: SF-295 CNS
[54] = test system: TK-10 renal
[55] = test system: RXF 393 renal

`Nc1ccn([C@@H]2S[C@H](CO)[C@@H](O)[C@@H]2F)c(=O)n1` gave a GI50 [1] of 24.2 nM, a TGI [1] of 182 nM and a GI50 [2] of 44.2 nM. The TGI [2] was 319 nM, the GI50 [3] was 310 nM and the TGI [3] was 35500 nM. It also gave a GI50 [4] of 86.2 nM, a TGI [4] greater than 100000 nM and a GI50 [5] of 138 nM. For the same molecule, the TGI [5] was 352 nM, the GI50 [6] was 22.5 nM and the TGI [6] was 387 nM. It also gave a GI50 [7] greater than 100000 nM, a TGI [7] greater than 100000 nM and a GI50 [8] of less than 10 nM. It also gave a GI50 [9] of 56.5 nM, a TGI [9] of 201 nM and a GI50 [10] of 140 nM. It also gave a TGI [10] of 349 nM, a GI50 [11] of 184 nM and a TGI [11] of 443 nM. The GI50 [12] was 53.2 nM, the TGI [12] was greater than 100000 nM and the GI50 [13] was 47.3 nM. For the same molecule, the TGI [13] was 6890 nM, the GI50 [14] was less than 10 nM and the TGI [14] was 12.2 nM. The GI50 [15] was 61.7 nM, the TGI [15] was 624 nM and the GI50 [16] was 49.3 nM. For the same molecule, the TGI [16] was 277 nM, the GI50 [17] was 383 nM and the TGI [17] was greater than 100000 nM. It also gave a GI50 [18] of 20.3 nM, a TGI [18] of 600 nM and a GI50 [19] of 84.9 nM. For the same molecule, the TGI [19] was 320 nM, the GI50 [20] was 250 nM and the TGI [20] was greater than 100000 nM. The GI50 [21] was 15.2 nM, the TGI [21] was 255 nM and the GI50 [22] was less than 10 nM. The TGI [22] was 316 nM, the GI50 [23] was 11.6 nM and the TGI [23] was 95 nM. The GI50 [24] was 139 nM, the TGI [24] was 271 nM and the GI50 [25] was 25.2 nM. The TGI [25] was 9020 nM, the GI50 [26] was 24.3 nM and the TGI [26] was 71.2 nM. For the same molecule, the GI50 [27] was 24 nM, the TGI [27] was 91 nM and the GI50 [28] was 14.3 nM. The TGI [28] was 54.8 nM, the GI50 [29] was 57.1 nM and the TGI [29] was greater than 100000 nM. For the same molecule, the GI50 [30] was 116 nM, the TGI [30] was 15600 nM and the GI50 [31] was 172 nM. It also gave a TGI [31] of 572 nM, a GI50 [32] of 150 nM and a GI50 [33] of 20.3 nM. It also gave a TGI [33] of 39 nM, a GI50 [34] of 74.3 nM and a TGI [34] of 672 nM. For the same molecule, the GI50 [35] was 23.8 nM, the TGI [35] was 56.6 nM and the GI50 [36] was 179 nM. It also gave a TGI [36] of 50400 nM, a GI50 [37] of 55.7 nM and a TGI [37] greater than 100000 nM. It also gave a GI50 [38] of 55.9 nM, a TGI [38] greater than 100000 nM and a GI50 [39] of 37.3 nM. For the same molecule, the TGI [39] was 797 nM, the GI50 [40] was 53.6 nM and the TGI [40] was 252 nM. For the same molecule, the GI50 [41] was 54 nM, the TGI [41] was 2680 nM and the GI50 [42] was 194 nM. It also gave a TGI [42] of 449 nM, a GI50 [43] of 434 nM and a TGI [43] greater than 100000 nM. For the same molecule, the GI50 [44] was 16.5 nM, the TGI [44] was 48.1 nM and the GI50 [45] was 23.7 nM. The TGI [45] was 64.5 nM, the GI50 [46] was 23.8 nM and the TGI [46] was 69.5 nM. For the same molecule, the GI50 [47] was 22.6 nM, the TGI [47] was 192 nM and the GI50 [48] was 38.7 nM. For the same molecule, the TGI [48] was 163 nM, the GI50 [49] was 90.9 nM and the TGI [49] was greater than 100000 nM. It also gave a GI50 [50] of 318 nM, a TGI [50] of 7780 nM and a GI50 [51] of 13.4 nM. It also gave a TGI [51] of 35.2 nM, a GI50 [52] of 310 nM and a TGI [52] of 57500 nM. For the same molecule, the GI50 [53] was 143 nM, the TGI [53] was 460 nM and the GI50 [54] was greater than 100000 nM. The TGI [54] was greater than 100000 nM, the GI50 [55] was 77.4 nM and the TGI [55] was 767 nM.
